Experimental findings from ChEMBL document CHEMBL4627278, “Discovery of 2-aminoisobutyric acid ethyl ester (AIBEE) phosphoramidate prodrugs for delivering nucleoside HCV NS5B polymerase inhibitors” (Bioorg Med Chem Lett, 2020) are described below.

One may read the half-life as the time needed for the level to fall by half in the phase considered. A higher half-life goes with slow decline. Broadly, the solubility is how much of the substance goes into solution per volume. High values mean a readily soluble substance, low ones a poorly soluble substance. A word on the logD: it is the decadic logarithm of the distribution of all forms, ionised or not, between an organic phase and buffer at a given pH. Low values mean a more hydrophilic compound, high ones a more lipophilic compound.

In brackets after ≈: the same amount, converted by molar mass.

Data set [1] can be described thus: Stability in human plasma assessed as parent compound remaining after 4 hrs. Format: ADME, cell-free. Particulars: read-out: Stability.
Data set [2] in a line: Prodrug conversion in human hepatocytes assessed as nucleotide triphosphate level at 100 uM after 4 hrs. Format: ADME, cell-based, Hepatocyte.
Data set [3] is described as follows: Prodrug conversion in dog liver assessed as nucleotide triphosphate level at 5 mg/kg, po co-dosed with 5 mg/kg sofosbuvir after 4 hrs. Format: ADME, organism-based, Canis lupus familiaris. Particulars: in vivo.
The nature of data set [4]: Prodrug conversion in dog liver assessed as nucleotide triphosphate level at 5 mg/kg, po co-dosed with 5 mg/kg sofosbuvir after 24 hrs. Format: ADME, organism-based, Canis lupus familiaris. As to conditions: in vivo.
Data set [5] is described as follows: Prodrug conversion in dog liver assessed as 2-((((2R,3R,4R,5R)-4-bromo-4-chloro-5-(2,4-dioxo-3,4-dihydropyrimidin-1(2H)-yl)-3-hydroxytetrahydrofuran-2-yl)methoxy)(hydroxy)phosphorylamino)-2-methylpropanoic acid level at 5 mg/kg, po after 4 hrs. It counts as ADME, organism-based, Canis lupus familiaris. Particulars: in vivo.
Data set [6] can be described thus: Prodrug conversion in dog liver assessed as 1-((2R,3R,4R,5R)-3-bromo-3-chloro-4-hydroxy-5-(hydroxymethyl)tetrahydrofuran-2-yl)pyrimidine-2,4(1H,3H)-dione level at 5 mg/kg, po after 24 hrs. It counts as ADME, organism-based, Canis lupus familiaris. As to conditions: in vivo.
The nature of data set [7]: Prodrug conversion in dog liver assessed as (2S)-2-((((2R,3R,4R,5R)-4-bromo-4-chloro-5-(2,4-dioxo-3,4-dihydropyrimidin-1(2H)-yl)-3-hydroxytetrahydrofuran-2-yl)methoxy)(hydroxy)phosphorylamino)propanoic acid level at 5 mg/kg, po after 24 hrs. Format: ADME, organism-based, Canis lupus familiaris. As to conditions: in vivo.
Data set [8] is described as follows: Half life in human hepatocytes. Format: ADME, cell-based, Hepatocyte.
Data set [9] in a line: Prodrug conversion in dog liver assessed as 1-((2R,3R,4R,5R)-3-bromo-3-chloro-4-hydroxy-5-(hydroxymethyl)tetrahydrofuran-2-yl)pyrimidine-2,4(1H,3H)-dione level at 5 mg/kg, po after 4 hrs. It counts as ADME, organism-based, Canis lupus familiaris. Particulars: in vivo.
The nature of data set [10]: Prodrug conversion in dog liver assessed as nucleotide triphosphate level at 5 mg/kg, po measured after 24 hrs. Format: ADME, organism-based, Canis lupus familiaris. Particulars: in vivo.
The nature of data set [11]: Prodrug conversion in dog liver assessed as (2S)-2-((((2R,3R,4R,5R)-4-bromo-4-chloro-5-(2,4-dioxo-3,4-dihydropyrimidin-1(2H)-yl)-3-hydroxytetrahydrofuran-2-yl)methoxy)(hydroxy)phosphorylamino)propanoic acid level at 5 mg/kg, po after 4 hrs. Particulars: in vivo. Format: ADME, organism-based, Canis lupus familiaris.
Data set [12] can be described thus: Prodrug conversion in human hepatocytes assessed as nucleotide triphosphate level at 100 uM incubated for 4 hrs followed by compound washout and further incubated in fresh media for 24 hrs. Format: ADME, cell-based, Hepatocyte.
Data set [13] is described as follows: Stability in dog plasma assessed as parent compound remaining after 4 hrs. It counts as ADME, cell-free, Canis lupus familiaris. As to conditions: read-out: Stability.
Data set [14] in a line: Prodrug conversion in dog liver assessed as 2-((((2R,3R,4R,5R)-4-bromo-4-chloro-5-(2,4-dioxo-3,4-dihydropyrimidin-1(2H)-yl)-3-hydroxytetrahydrofuran-2-yl)methoxy)(hydroxy)phosphorylamino)-2-methylpropanoic acid level at 5 mg/kg, po after 24 hrs. It counts as ADME, organism-based, Canis lupus familiaris. As to conditions: in vivo.
Data set [15] is described as follows: Prodrug conversion in dog liver assessed as nucleotide triphosphate level at 5 mg/kg, po after 4 hrs. Format: ADME, organism-based, Canis lupus familiaris. As to conditions: in vivo.
Data set [16] can be described thus: Aqueous solubility of compound at pH 7.4. Format: physicochemical. Particulars: buffer.
Data set [17] can be described thus: Intrinsic clearance in human hepatocytes. Format: ADME, cell-based, Hepatocyte. As to conditions: read-out: CLH (converted).
Data set [18] can be described thus: Lipophilicity, log D of compound. Format: physicochemical. As to conditions: octanol/water.
Data set [19] can be described thus: Cytotoxicity against human HuH7 cells assessed as reduction in cell viability. As to conditions: read-out: TD50 (the source's name). It counts as cell-based, Huh-7.

With `CC(C)C(=O)OC[C@H](C)NP(=O)(OC[C@H]1O[C@@H](n2ccc(=O)[nH]c2=O)[C@](Cl)(Br)[C@@H]1O)Oc1ccccc1` (stereo not given in full), the remaining at 4 h in [1] amounted to 0%; in data set [13], 54%. Also, the Drug metabolism in data set [2] is 2377 µM; in data set [3], 3.04 µg/g; in [4], 1.12 µg/g; in data set [5], 0.151 µg/g; in data set [6], 0.006 µg/g; in data set [7] it was < 0.005 µg/g. Further, the Drug metabolism is 0.177 µg/g in data set [9]; 0.037 µg/g in data set [10]; 0.151 µg/g in data set [11]; 32 µM in [12]; < 0.005 µg/g in data set [14]; 0.252 µg/g in data set [15]. For the same compound, the half-life in data set [8] was > 30 min. Further, the solubility in [16] is > 200 µM.
On to `CCOC(=O)C(C)(C)NP(=O)(OC[C@H]1O[C@@H](n2ccc(=O)[nH]c2=O)[C@](Cl)(Br)[C@@H]1O)Oc1ccccc1` (stereo not given in full), for which the remaining at 4 h in data set [1] was found to be 103%; in data set [13], 111%. For the same compound, the Drug metabolism stood at 2114 µM in [2]; 4.02 µg/g in [3]; 3.47 µg/g in data set [4]; 0.232 µg/g in data set [5]; 0.192 µg/g in [6]; 0.065 µg/g in data set [7]. The Drug metabolism in data set [9] came to 1.335 µg/g; in [10], 4.56 µg/g; in data set [11], 0.232 µg/g; in data set [12], 43 µM; in [14], 0.065 µg/g; in [15], 14.73 µg/g. Also, the CLint scaled in data set [17] was 685 mL/min/kg. In [8], the half-life is > 30 min. For the same compound, in [16], the solubility is > 200 µM.
For the compound `CC(C)OC(=O)[C@H](C)N[P@](=O)(OC[C@H]1O[C@@H](n2ccc(=O)[nH]c2=O)[C@](Cl)(Br)[C@@H]1O)Oc1ccccc1`, the remaining at 4 h in data set [1] and in [13] was 92% in each case. Besides, the Drug metabolism in [2] was determined as 110 µM; in data set [3] it was 1.59 µg/g; in data set [4], 1.02 µg/g; in data set [5] it was 0.066 µg/g; in [6], 0.011 µg/g; in data set [7], 0.006 µg/g. Moreover, the Drug metabolism in data set [9] came to 1.469 µg/g; in data set [10], 0.049 µg/g; in data set [11] it was 0.066 µg/g; in [12], 22 µM; in [14] it was 0.006 µg/g; in data set [15] it was 0.088 µg/g. In [17], the CLint scaled was 273 mL/min/kg. This compound came in with a logD in data set [18] of 3.51. The same compound yielded a half-life in [8] of 15 min. The CC50 in data set [19] was 62 µM. In data set [16], this compound yielded a solubility of 23 µM (≈ 14 µg/mL).
As for `CC(C)OC(=O)[C@H](C)N[P@@](=O)(OC[C@H]1O[C@@H](n2ccc(=O)[nH]c2=O)[C@](Cl)(Br)[C@@H]1O)Oc1ccccc1`, the Drug metabolism in data set [2] was 107 µM; in data set [3], 1.76 µg/g; in data set [4] it was 1.26 µg/g; in data set [5], 0.644 µg/g; in data set [6], 0.009 µg/g; in data set [7], < 0.005 µg/g. In addition, the Drug metabolism in data set [9] was 0.501 µg/g; in data set [10] it was 0.036 µg/g; in data set [11] it was 0.644 µg/g; in data set [12], 24 µM; in data set [14] it was < 0.005 µg/g; in data set [15] it was 0.143 µg/g. Moreover, the CLint scaled in [17] was 202 mL/min/kg. Further, the half-life in data set [8] was > 30 min. For the same compound, the solubility in data set [16] was > 200 µM.
Consider `CC(C)OC(=O)[C@H](C)N[P@](=O)(OC[C@H]1O[C@@H](n2ccc(=O)[nH]c2=O)[C@](Cl)(Br)[C@@H]1OC(=O)[C@@H](N)C(C)C)Oc1ccccc1`, for which the Drug metabolism in data set [2] stood at 169 µM; in [3], 3.1 µg/g; in data set [4], 2.89 µg/g; in data set [5], 0.359 µg/g; in data set [6] it was 0.029 µg/g; in data set [7] it was 0.006 µg/g. Also, the Drug metabolism in data set [9] stood at 0.341 µg/g; in data set [10], 0.409 µg/g; in [11], 0.359 µg/g; in data set [12], 24 µM; in data set [14] it was 0.006 µg/g; in [15] it was 0.828 µg/g. In data set [8], the half-life was > 30 min. Besides, the solubility in data set [16] was > 200 µM.
On to `CCOC(=O)[C@H](C)NP(=O)(OC[C@H]1O[C@@H](n2ccc(=O)[nH]c2=O)[C@](Cl)(Br)[C@@H]1O)Oc1ccccc1` (stereo not given in full), for which the remaining at 4 h came to 86% in data set [1] and 93% in [13]. The Drug metabolism in [3] is 3.87 µg/g; in data set [4], 3.18 µg/g; in data set [5], 0.357 µg/g; in data set [6], < 0.025 µg/g; in data set [7], 0.007 µg/g; in [9], 0.821 µg/g. For the same compound, the Drug metabolism is 0.629 µg/g in [10], 0.357 µg/g in data set [11], 0.007 µg/g in data set [14] and 1.24 µg/g in data set [15].
With `CC(C)OC(=O)[C@H](C)N[P@](=O)(OC[C@H]1O[C@@H](n2ccc(=O)[nH]c2=O)[C@](C)(F)[C@@H]1O)Oc1ccccc1` [SOFOSBUVIR], the Drug metabolism in data set [2] is 97 µM; in data set [12], 122 µM. The CLint scaled in data set [17] was 71.7 mL/min/kg. Moreover, in data set [18], the logD is 3.02. Also, the half-life in data set [8] is 120 min. The CC50 in [19] is > 100 µM. Also, the solubility in data set [16] is > 200 µM.
